From ChEMBL document CHEMBL4725396, “Discovery and optimization of pyrazolopyrimidine sulfamates as ATG7 inhibitors” (Bioorg Med Chem, 2020)

Experiments:
[1] = Inhibition of UAE (unknown origin)
[2] = system: SK-OV-3; assay: […] of autophagy in human SKOV3 cells assessed as accumulation of p62 by immunofluorescence assay; type: functional, cell-based
[3] = target: T1, Ubiquitin-like modifier-activating enzyme ATG7 (Homo sapiens, UniProt O95352); assay: Inhibition of ATG7 in human 293HEK cells assessed as inhibition of ATG7:ATG8 thioester formation after 8 hrs by Western blot analysis; type: cell-based, HEK293
T1 sequence (O95352 whole entry): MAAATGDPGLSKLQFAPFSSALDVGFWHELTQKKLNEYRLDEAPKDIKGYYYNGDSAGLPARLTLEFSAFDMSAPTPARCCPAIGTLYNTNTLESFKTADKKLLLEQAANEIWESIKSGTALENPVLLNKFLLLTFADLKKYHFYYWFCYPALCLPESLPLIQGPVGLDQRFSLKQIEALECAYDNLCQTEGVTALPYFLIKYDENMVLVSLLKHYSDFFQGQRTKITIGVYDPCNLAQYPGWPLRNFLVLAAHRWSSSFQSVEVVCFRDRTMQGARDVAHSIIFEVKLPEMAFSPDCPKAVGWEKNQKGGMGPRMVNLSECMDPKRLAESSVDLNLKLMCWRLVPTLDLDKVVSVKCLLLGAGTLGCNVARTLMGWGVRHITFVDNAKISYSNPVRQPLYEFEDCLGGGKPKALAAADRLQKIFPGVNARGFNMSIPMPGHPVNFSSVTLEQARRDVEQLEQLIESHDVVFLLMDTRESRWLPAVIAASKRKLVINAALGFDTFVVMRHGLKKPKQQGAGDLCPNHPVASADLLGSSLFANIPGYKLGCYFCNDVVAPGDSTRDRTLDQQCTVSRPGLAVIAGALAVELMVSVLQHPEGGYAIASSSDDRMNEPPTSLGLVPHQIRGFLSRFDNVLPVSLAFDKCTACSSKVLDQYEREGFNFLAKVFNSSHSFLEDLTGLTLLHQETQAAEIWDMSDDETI

[4] = Inhibition of NAE (unknown origin)
[5] = system: SK-OV-3; assay: […] of autophagy in human SKOV3 cells assessed as accumulation of NRB1 by immunofluorescence assay; type: functional, cell-based
[6] = target: T1, Ubiquitin-like modifier-activating enzyme ATG7; assay: Inhibition of recombinant His-tagged human ATG7 incubated for 105 mins in presence of GST-tagged ATG3 and Flag-tagged Gabarap and measured after 2 hrs by FRET assay relative to control
[7] = system: NCI-H1650; assay: Antiproliferative activity against human H1650 cells assessed as reduction in cell viability after 72 hrs by cell titer glow assay; type: cell-based; conditions: NCI-H1650, 72 h
[8] = Inhibition of SAE (unknown origin)
[9] = […] of autophagy in human H4 cells assessed as decrease in LC3B spot area by immunofluorescence assay; type: functional, cell-based
[10] = target: T1, Ubiquitin-like modifier-activating enzyme ATG7; assay: Inhibition of ATG7 in human 293HEK cells assessed as inhibition of ATG7:ATG8 thioester formation after 4 hrs by Western blot analysis; type: cell-based, HEK293

Structure (SMILES)	IC50 [1]	EC50 [2]	IC50 [3]	IC50 [4]	EC50 [5]	IC50 [6]	EC50 [7]	IC50 [8]	IC50 [9]	IC50 [10]
CSc1nn([C@H]2C[C@H](O)[C@@H](COS(N)(=O)=O)O2)c2ncnc(N)c12	> 1 µM	3 µM	0.086 µM	> 1 µM	> 20 µM	0.048 µM	10.4 µM	> 1 µM	0.938 µM	0.28 µM
CSc1nn([C@@H]2O[C@H](COS(N)(=O)=O)[C@@H](O)[C@H]2O)c2ncnc(N)c12	–	–	0.083 µM	–	–	0.014 µM	1.54 µM	–	1.5 µM	0.431 µM
Cc1ccc(Sc2nn([C@H]3C[C@H](O)[C@H](COS(N)(=O)=O)O3)c3ncnc(N)c23)c(F)c1	> 1 µM	3 µM	–	> 1 µM	9.4 µM	0.062 µM	> 50 µM	> 1 µM	0.659 µM	–
CCOc1nn([C@@H]2O[C@H](COS(N)(=O)=O)[C@@H](O)[C@H]2O)c2ncnc(N)c12	–	–	–	–	–	0.255 µM	49.4 µM	–	–	–
Cc1cccc(Sc2nn([C@H]3C[C@H](O)[C@@H](COS(N)(=O)=O)O3)c3ncnc(N)c23)c1	–	–	–	–	–	0.095 µM	> 50 µM	–	1.26 µM	0.422 µM
Nc1ncnc2c1c(OCc1ccccc1)nn2[C@@H]1O[C@H](COS(N)(=O)=O)[C@@H](O)[C@H]1O	–	–	1.28 µM	–	–	0.264 µM	> 50 µM	–	–	–
Nc1ncnc2c1c(OC(F)F)nn2[C@@H]1O[C@H](COS(N)(=O)=O)[C@@H](O)[C@H]1O	–	–	0.162 µM	–	–	0.029 µM	10 µM	–	2.3 µM	0.479 µM
CSc1nn([C@@H]2O[C@@H](COS(N)(=O)=O)[C@@H](O)[C@H]2O)c2ncnc(N)c12	–	–	–	–	–	0.325 µM	> 50 µM	–	6 µM	1.28 µM
COc1nn([C@H]2C[C@H](O)[C@@H](COS(N)(=O)=O)O2)c2ncnc(N)c12	–	–	–	–	–	0.249 µM	31.5 µM	–	–	–
CC(C)Sc1nn([C@H]2C[C@H](O)[C@H](COS(N)(=O)=O)O2)c2ncnc(N)c12	–	–	–	–	–	0.057 µM	> 50 µM	–	1.92 µM	0.468 µM
Nc1ncnc2c1c(Sc1cccc(Cl)c1)nn2[C@H]1C[C@H](O)[C@@H](COS(N)(=O)=O)O1	–	–	–	–	–	0.104 µM	> 50 µM	–	1.15 µM	0.499 µM
CCSc1nn([C@H]2C[C@H](O)[C@@H](COS(N)(=O)=O)O2)c2ncnc(N)c12	> 1 µM	2.3 µM	–	> 1 µM	> 20 µM	0.052 µM	> 50 µM	> 1 µM	1.36 µM	0.367 µM
CC(C)Sc1nn([C@H]2C[C@H](O)[C@@H](COS(N)(=O)=O)O2)c2ncnc(N)c12	–	–	0.15 µM	–	–	0.027 µM	> 50 µM	–	1.09 µM	0.438 µM
CC(C)Oc1nn([C@@H]2O[C@H](COS(N)(=O)=O)[C@@H](O)[C@H]2O)c2ncnc(N)c12	–	–	–	–	–	2.6 µM	> 50 µM	–	–	–
Nc1ncnc2c1c(Sc1ccc3c(c1)CCC3)nn2[C@H]1C[C@H](O)[C@@H](COS(N)(=O)=O)O1	–	–	–	–	–	0.066 µM	> 50 µM	–	0.71 µM	–
Cc1ccc(Sc2nn([C@H]3C[C@H](O)[C@@H](COS(N)(=O)=O)O3)c3ncnc(N)c23)c(F)c1	–	–	–	–	–	0.08 µM	> 50 µM	–	0.533 µM	–
CC(C)Sc1nn([C@@H]2O[C@H](COS(N)(=O)=O)[C@@H](O)[C@H]2O)c2ncnc(N)c12	–	–	0.284 µM	–	–	0.017 µM	> 50 µM	–	4.23 µM	1.25 µM
CSc1nn([C@@H]2O[C@@H](COS(N)(=O)=O)[C@@H](O)[C@@H]2F)c2ncnc(N)c12	–	–	–	–	–	0.145 µM	> 50 µM	–	2.53 µM	–
COc1nn([C@@H]2O[C@H](COS(N)(=O)=O)[C@@H](O)[C@H]2O)c2ncnc(N)c12	> 1 µM	–	0.335 µM	> 1 µM	–	0.089 µM	5.94 µM	> 50 µM	2.6 µM	–
